Experimental data reported in paper PMC12198407, “Preclinical and first-in-human of purinostat mesylate, a novel selective HDAC I/IIb inhibitor, in relapsed/refractory multiple myeloma and lymphoma” (Signal Transduction and Targeted Therapy, 2025).

How the values were obtained:
[1] = test system: ARD; assay: Cell viability CCK8; format: cell-based; settings: Homo sapiens, 72 h, no unit in table, read-out: Antiproliferative activity IC50
Experimental: (§1) PM, panobinostat, Pom and DXM were dissolved in DMSO and stored at -20°C freezer. Cells were seeded at a density of 1.0-3.0 × 10^4 cells/well/100 μL in 96-well plates. After overnight incubation, cells were treated with the drug-containing culture medium for 24, 48, or 72 hours, and cell viability was measured using CCK8 (Oriscience, Chengdu, China) at the indicated time points with Biotek Cytation 3 at a wavelength of 450 nm. The IC50 values were calculated using GraphPad Prism 9.4.1, and Calcusyn 2.0 software was employed to calculate the CI values.

[2] = test system: Karpas299; assay: Cell viability CCK8; format: cell-based; settings: Homo sapiens, KARPAS-299; Karpas299, 72 h; no unit in table; read-out: Antiproliferative activity IC50
Experimental: as §1

[3] = test system: NKYS; assay: Cell viability CCK8; format: cell-based; settings: Homo sapiens, 72 h, no unit in table, read-out: Antiproliferative activity IC50
Experimental: as §1

[4] = test system: MM1S; assay: Cell viability CCK8; format: cell-based; settings: Homo sapiens, MM1.S, 72 h, no unit in table (b9: nM), read-out: Antiproliferative activity IC50
Experimental: as §1

[5] = test system: MM1R; assay: Cell viability CCK8; format: cell-based; settings: Homo sapiens, MM.1R, 72 h, no unit in table, read-out: Antiproliferative activity IC50
Experimental: as §1

[6] = test system: KMS-11; assay: Cell viability CCK8; format: cell-based; settings: Homo sapiens; KMS-11, 72 h; no unit in table; read-out: Antiproliferative activity IC50
Experimental: as §1

[7] = test system: RPMI-8226R; assay: Cell viability CCK8; format: cell-based; settings: Homo sapiens, 72 h, no unit in table, read-out: Antiproliferative activity IC50
Experimental: as §1

[8] = test system: TMD-8; assay: Cell viability CCK8; format: cell-based; settings: Homo sapiens, TMD8; TMD-8, 72 h; no unit in table; read-out: Antiproliferative activity IC50
Experimental: as §1

[9] = test system: Raji; assay: Cell viability CCK8; format: cell-based; settings: Homo sapiens, 72 h, no unit in table, read-out: Antiproliferative activity IC50
Experimental: as §1

[10] = test system: RPMI-8226; assay: Cell viability CCK8; format: cell-based; settings: Homo sapiens; RPMI-8226, 72 h; no unit in table; read-out: Antiproliferative activity IC50
Experimental: as §1

[11] = test system: AMO1; assay: Cell viability CCK8; format: cell-based; settings: Homo sapiens; AMO1, 72 h; no unit in table; read-out: Antiproliferative activity IC50
Experimental: as §1

[12] = test system: Ramos; assay: Cell viability CCK8; format: cell-based; settings: Homo sapiens, 72 h, no unit in table, read-out: Antiproliferative activity IC50
Experimental: as §1

[13] = test system: Daudi; assay: Cell viability CCK8; format: cell-based; settings: Homo sapiens, 72 h, no unit in table, read-out: Antiproliferative activity IC50
Experimental: as §1

[14] = test system: SUDHL-4; assay: Cell viability CCK8; format: cell-based; settings: Homo sapiens, SU-DHL-4; SUDHL-4, 72 h; no unit in table; read-out: Antiproliferative activity IC50
Experimental: as §1

[15] = test system: RL; assay: Cell viability CCK8; format: cell-based; settings: Homo sapiens, 72 h, no unit in table, read-out: Antiproliferative activity IC50
Experimental: as §1

[16] = Metabolite profiling in plasma, bile, urine, feces; format: in vivo, SD rats; settings: for share of plasma AUC0-96h: [14C] 3 mg/100 µCi/kg i.v.; for amount in bile, % of administered dose: 0 to 72 hours; for amount in feces, % of administered dose / amount in urine, % of administered dose: 0 to 168 hours
Experimental: Following a single intravenous administration of [14C] Purinostat Mesylate at a dose of 3 mg/100 µCi/kg in male and female rats, a total of 14 metabolites were identified, in addition to the parent compound. These were designated as M382, M396, M474, M475, M490, M516, M517, M532, M546, M548, M558, M666, M708a, and M708b. Among these, M382 is an acetylated product of the parent drug after N-dealkylation, M396 is a carboxylic acid derivative of M382, M474 is a reduction product of the parent drug, M475 is a hydroxylated product derived from the amino conversion of M474, M490 is a mono-oxidation product of M474, M516 is an acetylated product of M474, M517 is a hydroxylated product derived from the amino conversion of M516, M532 is an acetylated product of the parent drug, M546 is a methylated product of M532, M548 is a dioxidation product of M516, M558 is a glucuronic acid conjugate of M382, M666 is a glucuronic acid conjugate of the parent drug, M708a is a mono-oxidation glucuronic acid conjugate of M516, and M708b is a glucuronic acid conjugate of M532.

[17] = clinical; format: in vivo, human
Experimental: To analyze the pharmacokinetics (PK) of PM, serial blood samples were collected at pre-dose and at 5 minutes, 10 minutes, 20 minutes, 30 minutes, 32 minutes, 35 minutes, 45 minutes, 1 hour, 2 hours, 4 hours, 8 hours, and 12 hours post-dose on day 1. During the multiple dosing phase, blood samples were collected at pre-dose on day 15, and 5 minutes, 10 minutes, 20 minutes, 30 minutes, 32 minutes, 35 minutes, 45 minutes, 1 hour, 2 hours, 4 hours, 8 hours, and 12 hours post-dose on day 15. PM plasma concentrations were determined using ultra performance liquid chromatography (UPLC) coupled with tandem mass spectrometry (MS-MS) detection. Pharmacokinetic parameters, including Tmax, Cmax, AUC0-t, AUC0-∞, t1/2, MRT, CL, Ke, and V, were calculated using the non-compartmental analysis (NCA) method with the professional pharmacokinetic software Phoenix WinNonlin (Version 8.1). Dose proportionality was assessed in single-dose experiments, while drug accumulation was evaluated in multiple-dose experiments.

[18] = Acute toxicity test, intravenous; format: in vivo, Beagle dogs
Experimental: In this study, the designed doses were 10 and 50 mg/kg administered intravenously. […] The maximum tolerated dose (MTD) was determined to be 10 mg/kg.

[19] = test system: serum cytokines and T cells in PB; assay: Phase I trial, serum cytokines and PB T cells in responders; format: in vivo, human; settings: after 1 week
[20] = human, in vivo
[21] = in vivo
Description: According to the "Guidelines for the Clinical Trial of Antineoplastic Drugs," for cytotoxic agents, the maximum recommended starting dose (MRSD) can be determined as one-tenth of the maximum tolerated dose (MTD) in rodent studies or one-sixth of the MTD in non-rodent species, expressed in mg/m². For some non-cytotoxic antineoplastic agents, due to their relatively lower toxicity, the starting dose for single administration in Phase I clinical trials can be calculated using one-fifth of the No Observed Adverse Effect Level (NOAEL) from non-rodent studies, or higher.
The Pharmacological Active Dose (PAD) based on mice is used to predict the minimum dose that may produce the expected pharmacological effect in humans.

CN(Cc1nc2c(N3CCOCC3)nc(-c3ccc(N)cc3)nc2n1C)c1ncc(C(=O)NO)cn1.CS(=O)(=O)O [PM, 2-(((2-(4-Aminophenyl)-9-methyl-6-(4-morpholinyl)-9H-purine-8-yl)methyl)methylamino)-N-hydroxy-5-pyrimidine-carboxamide Mesylate]
IC50 [1]: 0.42 ± 0.04 nM | IC50 [2]: 1.16 ± 0.14 nM | IC50 [3]: 0.77 ± 0.07 nM | IC50 [4]: 0.47 ± 0.02 nM | IC50 [5]: 0.33 ± 0.01 nM | IC50 [6]: 1.99 ± 0.21 nM | IC50 [7]: 2.02 ± 0.3 nM | IC50 [8]: 0.99 ± 0.14 nM | IC50 [9]: 1.96 ± 0.18 nM | IC50 [10]: 2.42 ± 0.4 nM | IC50 [11]: 1.78 ± 0.14 nM | IC50 [12]: 1.24 ± 0.47 nM | IC50 [13]: 0.73 ± 0.51 nM | IC50 [14]: 0.73 ± 0.05 nM | IC50 [15]: 1.27 ± 0.14 nM | share of plasma AUC0-96h ([16]; female rats): 11.15% | amount in bile, % of administered dose ([16]; females): 2.45% | amount in feces, % of administered dose ([16]; females): 0.84% | amount in urine, % of administered dose ([16]; females): 0.35% | share of plasma AUC0-96h ([16]; male rats): 8.79% | amount in bile, % of administered dose ([16]; males): 2.47% | amount in feces, % of administered dose ([16]; males): 0.94% | amount in urine, % of administered dose ([16]; males): 0.66% | accumulation index for AUC0–∞ (multiple doses/single dose) ([17]; 1.2 to 15.0 mg/m^2): 0.97–1.17 | accumulation index for Cmax (multiple doses/single dose) ([17]; 1.2 to 15.0 mg/m^2): 0.96 to 1.32 | half-life ([17]; human, plasma, iv, single (Day 1) intravenous, range over doses, read-out: half-life (t1/2)): 2.3 to 3.51 h | mortality ([18]; 50 mg/kg): all animals dying between days 2 and 4 | MTD ([18]; beagle, dog, in vivo, iv, single i.v., read-out: maximum tolerated dose (MTD)): 10 mg/kg | proportion of CD3+CD4+ T cells in PB ([19]; before 4.12%): 6.49% | proportion of CD3+CD8+ T cells in PB ([19]; before 4.30%): 9.56% | proportion of CD3+ T cells in PB ([19]; before 8.42%): 16.05% | QT interval prolongation on ECG [20]: 10(34.5) n (%) | cardiac toxic adverse events [20]: no grade 3 or higher events occurring | transient QTc interval prolongation, grade [20]: ≤ 2 grade | NOAEL ([21]; beagle, dog): < 0.3 mg/kg | NOAEL ([21]; rat): < 3 mg/kg
